From paper PMC6468028 (Protein & Cell, 2018) come the findings set out here.

Data set [1] addresses T1, L-fucokinase/GDP-fucose pyrophosphorylase (FKP); BfFKP (Bacteroides fragilis, UniProt Q58T34).
T1 construct: full-length wild type, overexpressed and purified; about 105 kDa protomer, tetramer; model covers residues 71-398 and 467-949
Put plainly: NADH coupled assay of fucokinase activity. It is filed as biochemical. The following applies: co-substrate ATP; C-terminal fucokinase domain.

Data set [2] deals with the molecule itself. Briefly: SEC; purified FKP on size exclusion chromatography; eluted at the volume of the 440 kDa molecular weight marker.

Take `C[C@@H]1OC(O)[C@@H](O)[C@H](O)[C@@H]1O` (stereo partly drawn) [L-fucose, 6-deoxy-L-galactose]: the “NADH coupled assay of fucokinase activity” value in data set [1] is “We applied the NADH coupled assay and the pyrophosphate assay to characterize the fucokinase activity”.

B1: L-fucokinase/GDP-fucose pyrophosphorylase (FKP) from Bacteroides fragilis 9343, full-length wild type (enzyme, UniProt Q58T34 1-949, looked up)
chain: MQKLLSLPSNLVQSFHELERVNRTDWFCTSDPVGKKLGSGGGTSWLLEECYNEYSDGATFGEWLEKEKRILLHAGGQSRRLPGYAPSGKILTPVPVFRWERGQHLGQNLLSLQLPLYEKIMSLAPDKLHTLIASGDVYIRSEKPLQSIPEADVVCYGLWVDPSLATHHGVFASDRKHPEQLDFMLQKPSLAELESLSKTHLFLMDIGIWLLSDRAVEILMKRSHKESSEELKYYDLYSDFGLALGTHPRIEDEEVNTLSVAILPLPGGEFYHYGTSKELISSTLSVQNKVYDQRRIMHRKVKPNPAMFVQNAVVRIPLCAENADLWIENSHIGPKWKIASRHIITGVPENDWSLAVPAGVCVDVVPMGDKGFVARPYGLDDVFKGDLRDSKTTLTGIPFGEWMSKRGLSYTDLKGRTDDLQAVSVFPMVNSVEELGLVLRWMLSEPELEEGKNIWLRSEHFSADEISAGANLKRLYAQREEFRKGNWKALAVNHEKSVFYQLDLADAAEDFVRLGLDMPELLPEDALQMSRIHNRMLRARILKLDGKDYRPEEQAAFDLLRDGLLDGISNRKSTPKLDVYSDQIVWGRSPVRIDMAGGWTDTPPYSLYSGGNVVNLAIELNGQPPLQVYVKPCKDFHIVLRSIDMGAMEIVSTFDELQDYKKIGSPFSIPKAALSLAGFAPAFSAVSYASLEEQLKDFGAGIEVTLLAAIPAGSGLGTSSILASTVLGAINDFCGLAWDKNEICQRTLVLEQLLTTGGGWQDQYGGVLQGVKLLQTEAGFAQSPLVRWLPDHLFTHPEYKDCHLLYYTGITRTAKGILAEIVSSMFLNSSLHLNLLSEMKAHALDMNEAIQRGSFVEFGRLVGKTWEQNKALDSGTNPPAVEAIIDLIKDYTLGYKLPGAGGGGYLYMVAKDPQAAVRIRKILTENAPNPRARFVEMTLSDKGFQVSRS
With B1, the “stoichiometry N” value in data set [2] turned out to be 4.
